Measured values taken from patent US20250099517A1, “Use of Lactobacillus reuteri Y7 strain for prevention or treatment of ocular diseases” (Taipei Medical University, priority 2023, published 2025).
One block for each compound: values may come before it.

Legend:
Format in all cases: in vivo, C57BL/6 mice
[1] = body weights of mice during the experiment; settings: LU, lutein 6.15 mg/kg bw oral daily, blue light, mean±S.E.M., in g (unit assumed)
Procedure: (§1) In the present invention, six-week-old male C57BL/6 mice were placed in a breeding cage in which the following feeding conditions were kept: temperature, 22±2° C., humidity, 55±5%, and the light-dark cycle of 12-hour light and 12-hour dark. The mice were fed with fodders at the adaptive phase for one week; general solid fodders for test animals were administered to mice of the control group and mice during the adaptive phase. The initial day was defined as Day 0 when the adaptive phase for the mice was over. From the next week, the mice were interfered with samples under test and exposed to blue light. During the experiments, the mice were monitored for weights as well as water intakes and checked for any physiological change. The data for experiments through electroretinography (ERG), fndus photography (FP), fundus fluorescein angiograph (FFA), spectral-domain optical coherence tomography (SD-OCT) and intraocular pressure (IOP) were collected at Day 0, Day 21 and Day 35, as shown in FIG. 1 for the experimental process. The C57BL/6 mice, which weighed between 23 and 25 g, were divided into seven groups randomly. In each group, the six mice induced by blue light successfully were incorporated in experiments. The samples dissolved in deuterium-depleted water (DDW) were fed to mice through oral tubes once a day. The groups were named and introduced as follows: • (1) Solvent not classified group (NC): The mice were fed with 0.2 ml deuterium-depleted water (DDW) through tubes; • (2) Negative control group (Blue light (BL)): The mice were fed with 0.2 ml deuterium-depleted water (DDW) through tubes and exposed to blue light; • (3) Low-dosage Y7 probiotics group […]): The mice were fed with low-dosage Y7 probiotics (probiotic counts of 1.0×10^8 CFU/ml dissolved in 0.2 ml DDW per day) and exposed to blue light; • (4) High-dosage Y7 probiotics group […]): The mice were fed with high-dosage Y7 probiotics (probiotic counts of 1.0×10^9 CFU/ml dissolved in 0.2 ml DDW per day) and exposed to blue light; • (5) Positive control group (lutein (LU)): The mice were fed with lutein and exposed to blue light. The recommended human dosage of lutein is 30 mg. The mouse cage (48×25×20 cm) placed inside a stainless ventilated box was equipped with blue light boards as blue light sources around and above. In the experiment of animals exposed to blue light, six-week-old mice staying in the mouse cage were fed with drinking water as well as fodders and exposed to 400 Lux blue light illumination under the light-dark cycle of 12-hour light and 12-hour dark. The experiment was aimed at causing mice' late dry macular disease induced by chronic light injuries for simulating a human being's macular disease after long-term exposure to short-wavelength blue light from 3C products in daily life. All data written as the form of mean±standard error of the mean (S.E.M.) were used in the statistical analysis through the one-way ANOVA and the Newman-Keuls test; p<0.05 denoted statistical difference. In the experiment, the software for the statistical analysis was Graph pad Prism (v9.2.0). The data such as food intake, water intake, body weight, organ weight and other clinical examination data were analyzed with the one-way ANOVA.

[2] = water intakes of mice during the experiment; settings: LU, lutein 6.15 mg/kg bw oral daily, blue light, Mean±S.E.M., n=6
Procedure: as §1

[3] = tested on: Occludin, Claudin-1, ZO-1 gene expression; test: q-PCR of tight junction gene expression in eyes; settings: for gene expressions of Occludin compared with the LU group: p<0.05
Procedure: (§2) The C57BL/6 mice, which weighed between 23 and 25 g, were divided into seven groups randomly. In each group, the six mice induced by blue light successfully were incorporated in experiments. The samples dissolved in deuterium-depleted water (DDW) were fed to mice through oral tubes once a day. The groups were named and introduced as follows: • (1) Solvent not classified group (NC): The mice were fed with 0.2 ml deuterium-depleted water (DDW) through tubes; • (2) Negative control group (Blue light (BL)): The mice were fed with 0.2 ml deuterium-depleted water (DDW) through tubes and exposed to blue light; • (3) Low-dosage Y7 probiotics group […]): The mice were fed with low-dosage Y7 probiotics (probiotic counts of 1.0×10^8 CFU/ml dissolved in 0.2 ml DDW per day) and exposed to blue light; • (4) High-dosage Y7 probiotics group […]): The mice were fed with high-dosage Y7 probiotics (probiotic counts of 1.0×10^9 CFU/ml dissolved in 0.2 ml DDW per day) and exposed to blue light; • (5) Positive control group (lutein (LU)): The mice were fed with lutein and exposed to blue light. The recommended human dosage of lutein is 30 mg. The mouse cage (48×25×20 cm) placed inside a stainless ventilated box was equipped with blue light boards as blue light sources around and above. In the experiment of animals exposed to blue light, six-week-old mice staying in the mouse cage were fed with drinking water as well as fodders and exposed to 400 Lux blue light illumination under the light-dark cycle of 12-hour light and 12-hour dark. The experiment was aimed at causing mice' late dry macular disease induced by chronic light injuries for simulating a human being's macular disease after long-term exposure to short-wavelength blue light from 3C products in daily life. The eyes of a mouse sacrificed were collected for the following purposes. RNAs extracted with Trizol were reverse-transcribed to cDNAs. Then, the real-time quantitative polymerase chain reaction was enabled to detect gene expressions related to inflammatory hormones and apoptosis such as TNF-α, IL-1B, IL-6, Bax, Bcl-2, Caspase1, Caspase3 and NLRP3 for comparisons with the endogenous level of β-actin, GAPDH or 18S rRNA. [table] The gene expressions related to tight junctions of mice' eyes, buccal mucosas and colons after induction of blue light were analyzed through q-PCR and shown in FIG. 10a, FIG. 10d and FIG. 10g for Occludin, FIG. 10b, FIG. 10e and FIG. 10h for Claudin-1 and FIG. 10c, FIG. 10f and FIG. 10i for ZO-1, respectively.

[4] = tested on: Occludin, Claudin-1, ZO-1 gene expression; test: q-PCR of tight junction gene expression in buccal mucosas; settings: Y7H high-dosage group, p<0.05
Excerpt: The C57BL/6 mice, which weighed between 23 and 25 g, were divided into seven groups randomly. In each group, the six mice induced by blue light successfully were incorporated in experiments. The samples dissolved in deuterium-depleted water (DDW) were fed to mice through oral tubes once a day. […] Then, the real-time quantitative polymerase chain reaction was enabled to detect gene expressions related to inflammatory hormones and apoptosis such as TNF-α, IL-1B, IL-6, Bax, Bcl-2, Caspase1, Caspase3 and NLRP3 for comparisons with the endogenous level of β-actin, GAPDH or 18S rRNA. […] The gene expressions related to tight junctions of mice' eyes, buccal mucosas and colons after induction of blue light were analyzed through q-PCR and shown in FIG. 10a, FIG. 10d and FIG. 10g for Occludin, FIG. 10b, FIG. 10e and FIG. 10h for Claudin-1 and FIG. 10c, FIG. 10f and FIG. 10i for ZO-1, respectively.

[5] = tested on: Occludin, Claudin-1, ZO-1 gene expression; test: q-PCR of tight junction gene expression in colons; settings: for gene expressions of ZO-1: p<0.05
Procedure: as §2

- water intakes of mice ([2]; Day7): 3.69 ± 0.86
- water intakes of mice ([2]; Day14): 4.17 ± 1.05
- water intakes of mice ([2]; Day21): 4.71 ± 0.42
- water intakes of mice ([2]; Day28): 3.65 ± 0.61
- water intakes of mice ([2]; Day35): 3.88 ± 0.31
Compound: CC1=C[C@H](O)CC(C)(C)[C@H]1/C=C/C(C)=C/C=C/C(C)=C/C=C/C=C(C)/C=C/C=C(C)/C=C/C1=C(C)C[C@@H](O)CC1(C)C [lutein, reference compound]
- body weights of mice ([1]; Day 0): 21.25 ± 1.52
- body weights of mice ([1]; Day 7): 21.35 ± 1.97
- body weights of mice ([1]; Day 14): 22.12 ± 2.09
- body weights of mice ([1]; Day 21): 22.12 ± 2.09
- body weights of mice ([1]; Day 28): 22.40 ± 1.97
- body weights of mice ([1]; Day 35): 22.88 ± 2.86

Compound: Lactobacillus reuteri Y7 [Y7 probiotics]
- gene expressions of Claudin-1 compared with the LU group ([3]; Y7H high-dosage group): descending trend
- gene expressions of ZO-1 compared with the LU group ([3]; Y7H high-dosage group): descending trend
- gene expressions of Occludin compared with the LU group ([3]; Y7H high-dosage group): decreased significantly
- gene expressions of Claudin-1 compared with the LU group ([3]; Y7L low-dosage group): descending trend
- gene expressions of ZO-1 compared with the LU group ([3]; Y7L low-dosage group): descending trend
- gene expressions of Occludin compared with the LU group ([3]; Y7L low-dosage group): decreased significantly
- gene expressions of ZO-1 compared with NC, BL or LU groups [4]: increased significantly
- gene expressions of Claudin-1 ([5]; Y7H high-dosage group): ascending trend
- gene expressions of Occludin ([5]; Y7H high-dosage group): ascending trend
- gene expressions of ZO-1 ([5]; Y7H high-dosage group): increased significantly
- gene expressions of Claudin-1 ([5]; Y7L low-dosage group): ascending trend
- gene expressions of Occludin ([5]; Y7L low-dosage group): ascending trend
- gene expressions of ZO-1 ([5]; Y7L low-dosage group): increased significantly
